Measurements: the NIST ThermoML archive (doi:10.1021/acs.jced.5b00770)
± gives the expanded uncertainty stated by the source.

Settings: Crystal; visual observation

A Normal melting temperature of 276.50 ± 0.9 °C was found for [Cl-].c1ccc([P+](c2ccccc2)(c2ccccc2)c2ccccc2)cc1 [tetraphenylphosphonium chloride] in this work.
